Test results: ChEMBL document CHEMBL3507680, “University of Dundee, Gates Library screen for HepG2 cell viability”

Experiment: Human HepG2 cell viability assay in 384 well format
Type: toxicity, cell-based
Parameters: dose 125 nL, time 70.5 hour; concentration not given beside the values
Conditions: HepG2 cells, read-out: Inhibition
With `CN(C)[C@@H]1CCN(C(=O)c2ccco2)[C@H]1Cc1cnn(C)c1` the cytotoxicity at 70.5 h was -12.7%.
Compound `CS(=O)(=O)N[C@@H]1CN(Cc2ccncc2)C[C@@H]2CCCO[C@@H]21` has a cytotoxicity at 70.5 h of -9.37%.
Compound `CC(=O)Nc1nc2c(s1)C1(CCN(C)CC1)Nc1ccccc1S2` has a cytotoxicity at 70.5 h of 3.04%.
Compound `CN(C)C(=O)CS(=O)(=O)Cc1ccn(-c2cccc(F)c2)n1` has a cytotoxicity at 70.5 h of -3.31%.
`N#Cc1ccc(CCC(=O)N2CCC(CN3CCOCC3)CC2)cc1` showed a cytotoxicity at 70.5 h of 23.1%.
With `Cn1ncc2c(=O)[nH]c(CN3CCCC3CC3CCCCC3)nc21` (stereo unspecified) the cytotoxicity at 70.5 h was -9.61%.
`Cc1n[nH]c(C)c1CCC(=O)NCC1(O)CCN(c2ccccn2)C1` (stereo unspecified) showed a cytotoxicity at 70.5 h of -1.98%.
Compound `CN(C)C(=O)COCC1CN(Cc2cccs2)Cc2ncn(C)c21` (stereo unspecified) has a cytotoxicity at 70.5 h of 17.3%.
With `CN(Cc1ccccc1)CC(O)Cn1cnc2ccc(Br)cc2c1=O` (stereo unspecified) the cytotoxicity at 70.5 h was -5.18%.
With `CSCCCN1CCCC1c1noc(C(C)C)n1` (stereo unspecified) the cytotoxicity at 70.5 h was -0.353%.
For `O=C(O)c1ccc(CCNC(=O)C2(O)Cc3ccccc3C2)cc1`, the cytotoxicity at 70.5 h was -12.7%.
`CN1C(=O)CC(c2cnn(C)c2)C12CCN(C(=O)c1ccc[nH]1)CC2` (stereo unspecified) showed a cytotoxicity at 70.5 h of -5.07%.
Compound `CCc1noc(CS(=O)(=O)CC=C(C)C)n1` has a cytotoxicity at 70.5 h of -9.04%.
Compound `O=C(CN(Cc1cccnc1)CC1CCCO1)Nc1ccc(F)cc1` (stereo unspecified) has a cytotoxicity at 70.5 h of 2.4%.
`CCN(Cc1noc(C2CCC2)n1)C(=O)c1cn2ccsc2n1` gave a cytotoxicity at 70.5 h of 14.6%.
For `Cc1cc(C)n(C2CN(C(=O)c3cn4ccsc4n3)C2)n1`, the cytotoxicity at 70.5 h was 2.53%.
With `Cc1ccc(S(=O)(=O)NC(=O)COc2cccc(C(N)=O)c2)s1` the cytotoxicity at 70.5 h was -10.7%.
In the case of `Cc1csc(C2CCCCN2C(=O)c2c[nH]c(C)n2)n1` (stereo unspecified), the cytotoxicity at 70.5 h is reported as 0.914%.
Work on `CCOC(=O)C1CCN(CCCc2nnnn2-c2ccccc2)CC1` yielded a cytotoxicity at 70.5 h of -3.5%.
In the case of `COc1cccc(C(C(=O)O)N2CCC(Cn3cccn3)CC2)c1OC` (stereo unspecified), the cytotoxicity at 70.5 h is reported as -9.71%.
`Cc1ccc(CC(=O)N2CCCN(Cc3nccn3C)CC2)cn1` showed a cytotoxicity at 70.5 h of -1.57%.
`Cc1ccc2c(c1)SCC(=O)N2Cc1noc(C2CCCO2)n1` (stereo unspecified) showed a cytotoxicity at 70.5 h of -11.5%.
Work on `CC(OCCCNC(=O)c1cccnc1O)c1ccccc1` (stereo unspecified) yielded a cytotoxicity at 70.5 h of -1.73%.
`CNc1ccc(C2CN(c3cc(C)nc(N)n3)CCO2)nc1` (stereo unspecified) gave a cytotoxicity at 70.5 h of -2.26%.
Work on `Cc1nnc(NCC2(c3ccccc3)CC2)c(C#N)c1C` yielded a cytotoxicity at 70.5 h of -0.882%.
For `CCc1nc(C)c([C@H]2CN(C)C[C@@H]2C(=O)Nc2ccc(OC)cc2)[nH]1`, the cytotoxicity at 70.5 h was -7.07%.
In the case of `NC(=O)CN1CCOCC(Cc2ccccc2Cl)C1` (stereo unspecified), the cytotoxicity at 70.5 h is reported as -3.99%.
`O=C(c1c[nH]nc1-c1cccc(F)c1)N1CCNC(c2ccccc2)C1` (stereo unspecified) gave a cytotoxicity at 70.5 h of -9.77%.
`CCn1cc(CN2CCCN(C(=O)c3ccc(C)o3)CC2)cn1` gave a cytotoxicity at 70.5 h of 20.7%.
Work on `CN1[C@H](CN2CCCC2)C[C@@H]2CN(C(=O)c3ccsc3)CC[C@@H]21` yielded a cytotoxicity at 70.5 h of 11.2%.
Compound `CCN(CCNC(=O)c1ccccc1Br)C1CC1` has a cytotoxicity at 70.5 h of -3.52%.
Work on `CCNC(=O)c1nnn(Cc2ccccc2)c1OC` yielded a cytotoxicity at 70.5 h of -7.02%.
Compound `COc1cccc(CNC(=O)N2CCN(Cc3cc(C)on3)CC2)c1` has a cytotoxicity at 70.5 h of -20.5%.
`Cc1cc(CN(C)C(=O)c2cc(COc3ccccc3)[nH]n2)n[nH]1` showed a cytotoxicity at 70.5 h of -3.12%.
With `COc1ccccc1-n1cc(C(=O)NCCCn2ccnn2)cn1` the cytotoxicity at 70.5 h was -8.35%.
Work on `Cc1ccc(NC(C)(C)c2nnnn2-c2ccc(Cl)cc2)c(C)c1` yielded a cytotoxicity at 70.5 h of 0.988%.
Work on `O=C(C[S+]([O-])Cc1ccccc1F)N1CCc2sccc2C1` (stereo unspecified) yielded a cytotoxicity at 70.5 h of -7.21%.
For `CCN(C(=O)NCc1ccccc1OC(F)F)C(C)c1cccnc1` (stereo unspecified), the cytotoxicity at 70.5 h was 0.0177%.
`COc1ccc(F)cc1-c1ccccc1CC1(C(=O)O)CCOCC1` gave a cytotoxicity at 70.5 h of 27.6%.
Work on `CN1C[C@H]2CC[C@@H]1CN(C(=O)COCc1nc3cc(F)ccc3[nH]1)C2` yielded a cytotoxicity at 70.5 h of 27.3%.
`Cc1cc(C)c2c(N3CCN(C(=O)N4CCOCC4)CC3)ncnc2n1` showed a cytotoxicity at 70.5 h of 30.5%.
`N#Cc1ccc(N2CCC3(CCC(=O)N3CCN3CCCC3)CC2)nc1` showed a cytotoxicity at 70.5 h of -9.44%.
Work on `O=C(NCc1ccco1)[C@@]12CCO[C@@H]1CCN(CCN1CCCC1)C2` yielded a cytotoxicity at 70.5 h of 8.62%.
`O=C(NCCc1cccnc1)C1CCCN(Cc2ccco2)C1` (stereo unspecified) showed a cytotoxicity at 70.5 h of 16.1%.
`Cc1ccc(CC(=O)N2CCOC(c3nc(C(C)(C)C)n[nH]3)C2)cn1` (stereo unspecified) gave a cytotoxicity at 70.5 h of -4.13%.
Work on `Cc1cccc(N2CCN(C(=O)CNCCn3cccn3)CC2)c1` yielded a cytotoxicity at 70.5 h of 9.75%.
For `CC(CCN1CCOCC1)NC(=O)c1cccc(C(F)(F)F)c1F` (stereo unspecified), the cytotoxicity at 70.5 h was -5.66%.
With `CC(C)c1nccc(CN2CCC(O)(CN3CCCCC3)C2)n1` (stereo unspecified) the cytotoxicity at 70.5 h was -4.46%.
With `Cc1nc(C(=O)N(C)[C@@H]2CCC[C@@H](Oc3ccccc3)[C@@H]2O)co1` the cytotoxicity at 70.5 h was 6.12%.
`Cc1nn(C)c(Cl)c1C1CCCN1C(=O)c1cccc(C#N)c1` (stereo unspecified) gave a cytotoxicity at 70.5 h of 0.647%.
`Cc1nc2c(c(NC(C)C)n1)CCN(C(=O)CCO)CC2` gave a cytotoxicity at 70.5 h of -14.4%.
Compound `O=C(Nc1nncs1)N(Cc1cccc(F)c1)C1CC1` has a cytotoxicity at 70.5 h of -5.56%.
For `O=C1Nc2ccccc2CN(C/C=C/c2ccccc2)C12CCNC2` (stereo unspecified), the cytotoxicity at 70.5 h was 2.42%.
For `CN(CCNc1ncc2c(n1)CCN2c1ccccc1)S(C)(=O)=O`, the cytotoxicity at 70.5 h was -9.7%.
For `Cn1cc(CN2CCOC(c3nccnc3-c3cccc(F)c3)C2)cn1` (stereo unspecified), the cytotoxicity at 70.5 h was 21.8%.
`CC(C(=O)NC1CC1)N1CCN(Cc2ccn(C)c(=O)c2)CC1` (stereo unspecified) gave a cytotoxicity at 70.5 h of 0.0611%.
`Cc1ncsc1CCCNC(=O)C1CC2(CCNCC2)CN1C` (stereo unspecified) gave a cytotoxicity at 70.5 h of 13%.
For `CC(NC(=O)NCCCN1CCCC1=O)c1nncn1C` (stereo unspecified), the cytotoxicity at 70.5 h was -9.31%.
`Cc1csc(N2CCCN(C(=O)c3c(C)noc3C)CC2)n1` gave a cytotoxicity at 70.5 h of -8.3%.
Work on `O=C(NCc1csc(-c2cnccn2)n1)c1cnn2c1CCCC2` yielded a cytotoxicity at 70.5 h of -5.37%.
`CC(=O)N1CCCC2(C1)CN(C(=O)C1CCCCC1)CCO2` (stereo unspecified) showed a cytotoxicity at 70.5 h of 23.5%.
In the case of `Fc1ccc2[nH]c(C3CCCN3CCCn3cccn3)nc2c1` (stereo unspecified), the cytotoxicity at 70.5 h is reported as -6.03%.
`Cc1ccccc1CCC(=O)N1CCc2ncnc(NCCO)c2CC1` showed a cytotoxicity at 70.5 h of -0.133%.
Compound `CC1(C)CN=C(N2CCN(CCCN3CCOCC3)CC2)S1` has a cytotoxicity at 70.5 h of -8.84%.
`CN(Cc1cc2n(n1)CCCN(C(=O)N1CCCC1)C2)Cc1nccs1` showed a cytotoxicity at 70.5 h of 24.4%.
In the case of `CNS(=O)(=O)c1cccc(C(C)NCc2ccncc2)c1` (stereo unspecified), the cytotoxicity at 70.5 h is reported as -2.51%.
Compound `CCC(O)CN1CCN(C(=O)c2cnc3n[nH]c(C)c3c2)CC1` (stereo unspecified) has a cytotoxicity at 70.5 h of -7.48%.
Work on `COc1ccc(CN2CCC(c3cc(O)nc(C)n3)C2)c(F)c1` (stereo unspecified) yielded a cytotoxicity at 70.5 h of -1.14%.
Compound `COCc1nnc(C(=O)N2CCCC(O)C2)o1` (stereo unspecified) has a cytotoxicity at 70.5 h of -1.1%.
In the case of `Cc1cc(=O)n(CC(=O)NCC2CCCO2)c(-c2ccccc2)n1` (stereo unspecified), the cytotoxicity at 70.5 h is reported as 2.72%.
Work on `c1ccc(OCCCNCc2cccs2)nc1` yielded a cytotoxicity at 70.5 h of 10.1%.
Work on `Cc1cc(C(=O)N(CC2CCCO2)c2ccncc2)c(C)o1` (stereo unspecified) yielded a cytotoxicity at 70.5 h of -9.47%.
`O=C(CNc1cccc2c1CCCC2)Nc1ccccc1Br` gave a cytotoxicity at 70.5 h of 2.61%.
For `CC(C)(C)c1cc(=O)[nH]c(C2(N)CCCCC2)n1`, the cytotoxicity at 70.5 h was -4.98%.
With `Cc1cnc(C(=O)N2CCC(C(=O)c3cc(F)ccc3F)CC2)cn1` the cytotoxicity at 70.5 h was -5.07%.
Work on `Cc1ccc(NC2CCN(C(=O)CCOCC(F)(F)F)CC2)nn1` yielded a cytotoxicity at 70.5 h of -2.83%.
In the case of `FC(F)Oc1ccc(CN2CCOC3(CCOCC3)C2)cc1Cl`, the cytotoxicity at 70.5 h is reported as 1.46%.
For `CCCn1ccc2cc(NC(=O)CC3CCCO3)ccc21` (stereo unspecified), the cytotoxicity at 70.5 h was -5.13%.
Compound `Cc1n[nH]c(C)c1-c1nccnc1CC1CCN(C(C)C)CC1` has a cytotoxicity at 70.5 h of 13.4%.
With `CN(Cc1nccn1C)S(=O)(=O)c1cccc(C#N)c1` the cytotoxicity at 70.5 h was -1.58%.
Work on `Cn1cc(C(=O)CC2CCCN2C(=O)c2c[nH]c3ccccc23)cn1` (stereo unspecified) yielded a cytotoxicity at 70.5 h of -13.9%.
